Laboratory results published in EP0584797A2, “Novel cephalosporin compounds and processes for the preparation thereof” (LUCKY LTD., priority 1992, dated 1994).
≈ marks a conversion by molar mass, not a printed value.

Experiments:
Assay in all cases: minimal inhibitory concentration, two-fold agar dilution
Format in all cases: cell-based
[1] = tested on: Acinetobacter calcoaceticus ATCC 15437; settings: ATCC15437, Muller-Hinton agar, 37°C, 20 hours, read-out: MIC values against the standard strains
Outline: (§1)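 Compounds were serially diluted two-fold into Mueller-Hinton agar, and each plate was spot-inoculated with the test strain at 10⁷ CFU per ml. Plates were incubated at 37°C for 20 hours before MIC values were read.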

[2] = tested on: Bacillus cereus ATCC 11778; settings: ATCC11778, Muller-Hinton agar, 37°C, 20 hours, read-out: MIC values against the standard strains
Outline: as §1

[3] = tested on: Bacillus megaterium ATCC 9885; settings: Priestia megaterium, ATCC9885; Muller-Hinton agar; 37°C; 20 hours; read-out: MIC values against the standard strains
Outline: as §1

[4] = tested on: Citrobacter freundii ATCC 8090; settings: ATCC8090, Muller-Hinton agar, 37°C, 20 hours, read-out: MIC values against the standard strains
Outline: as §1

[5] = tested on: Enterobacter aerogenes ATCC 29751; settings: Klebsiella aerogenes, ATCC29751; Muller-Hinton agar; 37°C; 20 hours; read-out: MIC values against the standard strains
Outline: as §1

[6] = tested on: Enterobacter cloacae ATCC 27508; settings: ATCC27508, Muller-Hinton agar, 37°C, 20 hours, read-out: MIC values against the standard strains
Outline: as §1

[7] = tested on: Escherichia coli ATCC 10536; settings: ATCC10536, Muller-Hinton agar, 37°C, 20 hours, read-out: MIC values against the standard strains
Outline: as §1

[8] = tested on: Escherichia coli ATCC 25922; settings: ATCC25922, Muller-Hinton agar, 37°C, 20 hours, read-out: MIC values against the standard strains
Outline: as §1

[9] = tested on: Klebsiella pneumoniae ATCC 10031; settings: ATCC10031, Muller-Hinton agar, 37°C, 20 hours, read-out: MIC values against the standard strains
Outline: as §1

[10] = tested on: Micrococcus luteus ATCC 9341; settings: ATCC9341, Muller-Hinton agar, 37°C, 20 hours, read-out: MIC values against the standard strains
Outline: as §1

[11] = tested on: Morganella morganii ATCC 8076h; settings: ATCC8076H, Muller-Hinton agar, 37°C, 20 hours, read-out: MIC values against the standard strains
Outline: as §1

[12] = tested on: Proteus mirabilis ATCC 25933; settings: ATCC25933, Muller-Hinton agar, 37°C, 20 hours, read-out: MIC values against the standard strains
Outline: as §1

[13] = tested on: Proteus vulgaris ATCC 6059; settings: ATCC6059, Muller-Hinton agar, 37°C, 20 hours, read-out: MIC values against the standard strains
Outline: as §1

[14] = tested on: Providencia rettgeri ATCC 9250; settings: ATCC9250, Muller-Hinton agar, 37°C, 20 hours, read-out: MIC values against the standard strains
Outline: as §1

[15] = tested on: Pseudomonas aeruginosa ATCC 10145; settings: ATCC10145, Muller-Hinton agar, 37°C, 20 hours, read-out: MIC values against the standard strains
Outline: as §1

[16] = tested on: Pseudomonas aeruginosa ATCC 25619; settings: ATCC25619, Muller-Hinton agar, 37°C, 20 hours, read-out: MIC values against the standard strains
Outline: as §1

[17] = tested on: Pseudomonas aeruginosa ATCC 27853; settings: ATCC27853, Muller-Hinton agar, 37°C, 20 hours, read-out: MIC values against the standard strains
Outline: as §1

[18] = tested on: Salmonella typhimurium ATCC 14028; settings: Salmonella enterica; Muller-Hinton agar; 37°C; 20 hours; read-out: MIC values against the standard strains
Outline: as §1

[19] = tested on: Serratia marcescens ATCC 27117; settings: ATCC27117, Muller-Hinton agar, 37°C, 20 hours, read-out: MIC values against the standard strains
Outline: as §1

[20] = tested on: Shigella flexneri ATCC 11836; settings: ATCC11836, Muller-Hinton agar, 37°C, 20 hours, read-out: MIC values against the standard strains
Outline: as §1

[21] = tested on: Shigella sonnei ATCC 11060; settings: ATCC11060, Muller-Hinton agar, 37°C, 20 hours, read-out: MIC values against the standard strains
Outline: as §1

[22] = tested on: Staphylococcus aureus ATCC 10537; settings: ATCC10537, Muller-Hinton agar, 37°C, 20 hours, read-out: MIC values against the standard strains
Outline: as §1

[23] = tested on: Staphylococcus aureus ATCC 6538p; settings: ATCC6538P, Muller-Hinton agar, 37°C, 20 hours, read-out: MIC values against the standard strains
Outline: as §1

[24] = tested on: Staphylococcus epidermidis ATCC 12228; settings: ATCC12228, Muller-Hinton agar, 37°C, 20 hours, read-out: MIC values against the standard strains
Outline: as §1

[25] = tested on: Streptococcus faecalis ATCC 29212; settings: Enterococcus faecalis, ATCC29212; Muller-Hinton agar; 37°C; 20 hours; read-out: MIC values against the standard strains
Outline: as §1

SMILES	MIC [1] [µg/mL]	MIC [2] [µg/mL]	MIC [3] [µg/mL]	MIC [4] [µg/mL]	MIC [5] [µg/mL]	MIC [6] [µg/mL]	MIC [7] [µg/mL]	MIC [8] [µg/mL]	MIC [9] [µg/mL]	MIC [10] [µg/mL]	MIC [11] [µg/mL]	MIC [12] [µg/mL]	MIC [13] [µg/mL]	MIC [14] [µg/mL]	MIC [15] [µg/mL]	MIC [16] [µg/mL]	MIC [17] [µg/mL]	MIC [18] [µg/mL]	MIC [19] [µg/mL]	MIC [20] [µg/mL]	other results
COc1cc(N)nc(SCC2=C(C(=O)[O-])N3C(=O)[C@@H](NC(=O)/C(=N\OC(C)(C)C(=O)O)c4csc(N)n4)[C@H]3SC2)[n+]1C [Example 17, 7-[(Z)-2-(2-aminothiazol-4-yl)-2-(carboxyprop-2-oxyimino)acetamido]-3-(4-amino-6-methoxy-1-methylpyrimidinium-2-yl)thiomethyl-3-cephem-4-carboxylate]	2 (≈ 3.13 µM)	128 (≈ 200 µM)	0.25 (≈ 0.391 µM)	0.13 (≈ 0.204 µM)	4 (≈ 6.26 µM)	0.016 (≈ 0.0251 µM)	0.063 (≈ 0.0986 µM)	0.13 (≈ 0.204 µM)	0.063 (≈ 0.0986 µM)	0.5 (≈ 0.783 µM)	0.016 (≈ 0.0251 µM)	0.063 (≈ 0.0986 µM)	0.13 (≈ 0.204 µM)	0.13 (≈ 0.204 µM)	4 (≈ 6.26 µM)	1 (≈ 1.57 µM)	2 (≈ 3.13 µM)	0.25 (≈ 0.391 µM)	0.25 (≈ 0.391 µM)	0.031 (≈ 0.0485 µM)	MIC [21]: 0.13 µg/mL (≈ 0.204 µM); MIC [22]: 1 µg/mL (≈ 1.57 µM); MIC [23]: 4 µg/mL (≈ 6.26 µM); MIC [24]: 1 µg/mL (≈ 1.57 µM); MIC [25]: > 128 µg/mL
C[n+]1ccc(N)nc1SCC1=C(C(=O)[O-])N2C(=O)[C@@H](NC(=O)/C(=N\O)c3csc(N)n3)[C@H]2SC1 [Example 10, 7-[(Z)-2-(2-aminothiazol-4-yl)-2-oxyiminoacetamido]-3-(4-amino-1-methylpyrimidinium-2-yl)thiomethyl-3-cephem-4-carboxylate]	0.063 (≈ 0.121 µM)	32 (≈ 61.2 µM)	0.13 (≈ 0.249 µM)	0.063 (≈ 0.121 µM)	0.063 (≈ 0.121 µM)	0.016 (≈ 0.0306 µM)	0.25 (≈ 0.478 µM)	0.25 (≈ 0.478 µM)	0.25 (≈ 0.478 µM)	0.25 (≈ 0.478 µM)	0.016 (≈ 0.0306 µM)	0.25 (≈ 0.478 µM)	1 (≈ 1.91 µM)	≤ 0.008	> 128	128 (≈ 245 µM)	> 128	0.5 (≈ 0.957 µM)	0.5 (≈ 0.957 µM)	0.016 (≈ 0.0306 µM)	MIC [21]: 1 µg/mL (≈ 1.91 µM); MIC [22]: 0.25 µg/mL (≈ 0.478 µM); MIC [23]: 0.5 µg/mL (≈ 0.957 µM); MIC [24]: 0.063 µg/mL (≈ 0.121 µM); MIC [25]: 8 µg/mL (≈ 15.3 µM)
CC[n+]1c(SCC2=C(C(=O)[O-])N3C(=O)[C@@H](NC(=O)/C(=N\OC(C)(C)C(=O)O)c4csc(N)n4)[C@H]3SC2)nc(N)c(N)c1N [Example 11, 7-[(Z)-2-(2-aminothiazol-4-yl)-2-(carboxyprop-2-oxyimino)acetamido]-3-(4,5,6-triamino-1-ethylpyrimidinium-2-yl)thiomethyl-3-cephem-4-carboxylate]	8 (≈ 12.3 µM)	128 (≈ 196 µM)	0.13 (≈ 0.199 µM)	0.13 (≈ 0.199 µM)	2 (≈ 3.06 µM)	0.031 (≈ 0.0475 µM)	0.031 (≈ 0.0475 µM)	0.063 (≈ 0.0965 µM)	0.063 (≈ 0.0965 µM)	0.13 (≈ 0.199 µM)	≤ 0.008	0.25 (≈ 0.383 µM)	0.25 (≈ 0.383 µM)	0.063 (≈ 0.0965 µM)	8 (≈ 12.3 µM)	2 (≈ 3.06 µM)	4 (≈ 6.13 µM)	1 (≈ 1.53 µM)	1 (≈ 1.53 µM)	0.063 (≈ 0.0965 µM)	MIC [21]: 1 µg/mL (≈ 1.53 µM); MIC [22]: 2 µg/mL (≈ 3.06 µM); MIC [23]: 4 µg/mL (≈ 6.13 µM); MIC [24]: 2 µg/mL (≈ 3.06 µM); MIC [25]: > 128 µg/mL
